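Test compounds were applied to cells in 96-well plates for 48 hours at 5 doses. GI50 is the concentration that inhibits growth by half.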 Activity calls are given as the source filed them. No stated cut-off is given here; in the data, active = GI50 up to about 1.1 µM and inactive = higher.
Legend:
Experiment in all cases: NCI tumour cell line growth inhibition, 48 h
COLO 205 = system: COLO 205
EKVX = system: EKVX
MDA-MB-231 = system: MDA-MB-231
OVCAR-8 = system: OVCAR-8
A498 = system: A498
SN12C = system: SN12C
ACHN = system: ACHN
BT-549 = system: BT-549
U-251 = system: U-251
OVCAR-3 = system: OVCAR-3
HL-60 = system: HL-60
HCT-15 = system: HCT-15
SNB-19 = system: SNB-19
SK-OV-3 = system: SK-OV-3
HCC 2998 = system: HCC 2998
RPMI-8226 = system: RPMI-8226
786-0 = system: 786-0
DU-145 = system: DU-145
MDA-N = system: MDA-N
SF-268 = system: SF-268

Compound: CC(C)(C)OC(=O)NCCC(=O)NC1(c2cc3ccccc3s2)CCCCC1
- GI50 (COLO 205): 17.5 µM (inactive)
- GI50 (EKVX): 20.9 µM (inactive)
- GI50 (MDA-MB-231): 19.1 µM (inactive)
- GI50 (OVCAR-8): 17.5 µM (inactive)
- GI50 (A498): 22.9 µM (inactive)
- GI50 (SN12C): 18.3 µM (inactive)
- GI50 (ACHN): 24.5 µM (inactive)
- GI50 (BT-549): 16.9 µM (inactive)
- GI50 (U-251): 19.3 µM (inactive)
- GI50 (OVCAR-3): 15.6 µM (inactive)
- GI50 (HL-60): 16.7 µM (inactive)
- GI50 (HCT-15): 15.1 µM
- GI50 (SNB-19): 17.4 µM (inactive)
- GI50 (SK-OV-3): 24.4 µM (inactive)
- GI50 (HCC 2998): 23.2 µM (inactive)
- GI50 (RPMI-8226): 0.759 µM (active)
- GI50 (786-0): 17.5 µM (inactive)
- GI50 (DU-145): 16.7 µM (inactive)
- GI50 (MDA-N): 17.6 µM (inactive)

Compound: C=CCOc1ccc(C2c3c(n[nH]c3O)CC(C)(O)C2C(=O)OC)cc1OC (stereo not drawn)
- GI50 (COLO 205): > 100 µM (inactive)
- GI50 (EKVX): > 100 µM (inactive)
- GI50 (MDA-MB-231): > 100 µM (inactive)
- GI50 (OVCAR-8): > 100 µM (inactive)
- GI50 (A498): > 100 µM (inactive)
- GI50 (SN12C): > 100 µM (inactive)
- GI50 (ACHN): > 100 µM (inactive)
- GI50 (BT-549): > 100 µM (inactive)
- GI50 (U-251): > 100 µM (inactive)
- GI50 (OVCAR-3): > 100 µM (inactive)
- GI50 (HL-60): > 100 µM (inactive)
- GI50 (HCT-15): > 100 µM
- GI50 (SNB-19): > 100 µM (inactive)
- GI50 (SF-268): > 100 µM (inactive)
- GI50 (HCC 2998): > 100 µM (inactive)
- GI50 (RPMI-8226): > 100 µM (inactive)
- GI50 (786-0): > 100 µM (inactive)
- GI50 (DU-145): > 100 µM (inactive)
- GI50 (MDA-N): > 100 µM (inactive)

Compound: Cc1ccc(/C=C/C(=O)c2cc(CN(C)C)c(O)c(CN(C)C)c2)cc1
- GI50 (COLO 205): 10.6 µM (inactive)
- GI50 (EKVX): 25.7 µM (inactive)
- GI50 (MDA-MB-231): 13.8 µM (inactive)
- GI50 (OVCAR-8): 21.3 µM (inactive)
- GI50 (A498): 25.2 µM (inactive)
- GI50 (SN12C): 14.2 µM (inactive)
- GI50 (ACHN): 12.1 µM (inactive)
- GI50 (BT-549): 18.3 µM (inactive)
- GI50 (U-251): 21.9 µM (inactive)
- GI50 (OVCAR-3): 14.6 µM (inactive)
- GI50 (HL-60): 11.7 µM (inactive)
- GI50 (HCT-15): 14.4 µM
- GI50 (SF-268): 25.9 µM (inactive)
- GI50 (HCC 2998): 18.5 µM (inactive)
- GI50 (RPMI-8226): 13.2 µM (inactive)
- GI50 (786-0): 27.2 µM (inactive)
- GI50 (DU-145): 30.2 µM (inactive)
- GI50 (MDA-N): 15.2 µM (inactive)

Compound: Cc1ccc(/C=N/n2c(Cc3ccccc3)n[nH]c2=O)cc1
- GI50 (COLO 205): > 100 µM (inactive)
- GI50 (EKVX): > 100 µM (inactive)
- GI50 (MDA-MB-231): > 100 µM (inactive)
- GI50 (OVCAR-8): > 100 µM (inactive)
- GI50 (A498): > 100 µM (inactive)
- GI50 (SN12C): > 100 µM (inactive)
- GI50 (ACHN): > 100 µM (inactive)
- GI50 (BT-549): 19.8 µM (inactive)
- GI50 (OVCAR-3): > 100 µM (inactive)
- GI50 (HL-60): > 100 µM (inactive)
- GI50 (HCT-15): > 100 µM
- GI50 (SNB-19): > 100 µM (inactive)
- GI50 (SF-268): > 100 µM (inactive)
- GI50 (HCC 2998): > 100 µM (inactive)
- GI50 (RPMI-8226): > 100 µM (inactive)
- GI50 (786-0): 80.9 µM (inactive)
- GI50 (DU-145): > 100 µM (inactive)
- GI50 (MDA-N): > 100 µM (inactive)

Compound: CC(=O)Nc1cc2c3c(c1)CCCN3CCC2
- GI50 (COLO 205): > 100 µM (inactive)
- GI50 (EKVX): 64.9 µM (inactive)
- GI50 (MDA-MB-231): > 100 µM (inactive)
- GI50 (OVCAR-8): > 100 µM (inactive)
- GI50 (A498): > 100 µM (inactive)
- GI50 (ACHN): > 100 µM (inactive)
- GI50 (BT-549): > 100 µM (inactive)
- GI50 (U-251): > 100 µM (inactive)
- GI50 (OVCAR-3): > 100 µM (inactive)
- GI50 (HL-60): > 100 µM (inactive)
- GI50 (HCT-15): > 100 µM
- GI50 (SNB-19): > 100 µM (inactive)
- GI50 (SK-OV-3): > 100 µM (inactive)
- GI50 (HCC 2998): > 100 µM (inactive)
- GI50 (RPMI-8226): > 100 µM (inactive)
- GI50 (786-0): > 100 µM (inactive)
- GI50 (DU-145): > 100 µM (inactive)
- GI50 (MDA-N): > 100 µM (inactive)

Compound: O=C1OCc2c1cc1cc3c(cc1c2-c1ccc2c(c1)OCO2)OCO3.O=C1OCc2cc3cc4c(cc3c(-c3ccc5c(c3)OCO5)c21)OCO4
- GI50 (COLO 205): 5.79 µM (inactive)
- GI50 (MDA-MB-231): 2.12 µM (inactive)
- GI50 (OVCAR-8): 13.5 µM (inactive)
- GI50 (A498): 24.7 µM (inactive)
- GI50 (SN12C): 15 µM (inactive)
- GI50 (BT-549): 19 µM (inactive)
- GI50 (U-251): 13.2 µM (inactive)
- GI50 (OVCAR-3): 4 µM (inactive)
- GI50 (HL-60): 34.8 µM (inactive)
- GI50 (HCT-15): 6.18 µM
- GI50 (SNB-19): 30 µM (inactive)
- GI50 (SK-OV-3): 17.8 µM (inactive)
- GI50 (HCC 2998): 18.7 µM (inactive)
- GI50 (RPMI-8226): 4.31 µM (inactive)
- GI50 (DU-145): 11.3 µM (inactive)
- GI50 (MDA-N): 1.41 µM (inactive)
